Measurements as given in patent US10632064B2, “Topical regional neuro affective therapy with cannabinoid combination products” (Afgin Pharma, LLC, priority 2015, dated 2020).
Values joined by “and” are separate entries in the source; they are usually repeats but may differ in a detail not shown here. Equal values may be shown once. “Also recorded” adds a separate entry of the source.

What was measured:
human patients = test: Example 5: topical cannabidiol (CBD) formulation on the back of the neck, 40 mg dose, patient cases (Table 1); format: in vivo
Experimental: The following patients were treated with a topical cannabidiol (CBD) formulation administered on the back of the neck on human patients at a 40 mg dose, as more specifically described below in Table 1: […]

[1] = system: human patient with episodic severe post-operative neuralgic head pain; test: Example 6: topical cannabidiol 40 mg at the BONATH, post-operative neuralgic head pain, EEG; format: in vivo
Experimental: The efficacy of a topical cannabidiol formulation was studied in a human patient (s/p resection right clival meningioma) suffering from episodic severe post-operative neuralgic head pain suffering from severe right-sided neuralgic head pain every 15-20 seconds. The patient was treated with cannabidiol 40 mg applied to the BONATH in a topical formulation. There was attenuation of associated focal EEG abnormalities. […] The neuralgic head pain was less severe by about 50% (frequency decreased to every 2-5 minutes).

[2] = system: patients having seizures, encephalopathy, and/or spasticity; test: Example 8: topical CBD at the back of the neck (Table 2); format: in vivo, human
Experimental: (§1) In Example 8, 34 patients having seizures, encephalopathy, and/or spasticity were treated with topical CBD at the back of the neck. The treatment comprised a dose of either 15 mg or 30 mg cannabinoid drugs, with the majority being CBD, the source of the CBD being CBD oil commercially available from CannaVest.

[3] = system: patients having headaches and neck pain; test: Example 9: topical CBD at the back of the neck (Table 3); format: in vivo, human
Experimental: In Example 9, 13 patients having headaches and neck pain were treated with topical CBD at the back of the neck. The treatment comprised a dose of either 15 mg or 30 mg cannabinoid drugs, with the majority being CBD, the source of the CBD being CBD oil commercially available from CannaVest.

[4] = system: patients having back/spine pain, fibromyalgia, and/or extremity pain; test: Example 10: topical CBD (Table 4); format: in vivo, human
Experimental: as §1, with “10, 16” for “8, 34”, “back/spine pain, fibromyalgia,” for “seizures, encephalopathy,”, “extremity pain” for “spasticity”

[5] = system: patients having Parkinson's disease, tremors, or movement disorders; test: Example 11: topical CBD at the back of the neck (Table 5); format: in vivo, human
Experimental: as §1, with “11, 6” for “8, 34”, “Parkinson's disease, tremors, or movement disorders” for “seizures, encephalopathy, and/or spasticity”

[6] = system: patients having acute and chronic neurological and psychiatric conditions; test: Example 12: topical CBD from crystalline powder (Table 6); format: in vivo, human
Experimental: In Example 12, 19 patients having acute and chronic neurological and psychiatric conditions were treated with topical CBD at the back of the neck. The treatment comprised a dose of either 15 mg or 30 mg cannabinoid drugs, with the majority being CBD, the source of the CBD being CBD crystalline powder oil commercially available from CannaVest.

[7] = system: patient with head injury and seizures; test: Example 14: 1 g of 1.6% CBD cream nuchal twice a day, intractable complex partial seizures, EEG; format: in vivo, human
Experimental: They presented with seizures (intractable complex partial seizures with secondary generalization; episodes of encephalopathy for 24 hours thereafter). […] They had had 5 craniotomies, and previously had been treated with Dilantin, Carbatrol, Keppra, Lamictal, and Depakote. Their current medications were Vimpat and Onfi (clobazam).
The patient was treated with 1 g of 1.6% CBD cream to the nuchal (back of the neck) region twice a day. […] The patient remained on Vimpat, and their dose of Onfi was reduced by half.

[8] = system: patient with autism and generalized seizures; test: Example 15: 1 g of 2% CBD cream nuchal, autism and generalized seizures, EEG; format: in vivo, human
Experimental: In Example 15, a patient presented with autism and generalized seizures. They were uncontrolled on Lamictal, Depakote, Keppra, Zonegran, ethosuximide/Zarontin. When examined, they presented with seizures about every 2 weeks on Banzel, Onfi, and Topamax as antiepileptics. FIG. 7 is a baseline EEG taken at the initial examination, showing seizure focus, showing generalized slowing and disorganization with left frontal sharp waves and paroxysms of sharp waves and spikes.
The patient was treated with 1 g of 2% CBD cream to the nuchal (back of the neck). […] They continued therapy with the topical CBD cream to the nuchal region twice daily, and the Topamax was tapered off, resulting in added overall improved encephalopathy.

[9] = system: patient with atonic seizures; test: Example 17: 1 g of 1.6% CBD cream nuchal, atonic seizures, EEG; format: in vivo, human
Experimental: In Example 17, a patient presented with atonic seizures. The patient would suddenly freeze and fall down (e.g., riding a bike, at school, etc.). FIG. 11 is a baseline EEG taken at the initial examination, showing cortical irritability on the left central region c/w potential for seizures.
The patient was treated with 1 g of 1.6% CBD cream to the nuchal (back of the neck). […] FIG. 13 is a brain MRI of the patient showing a left thalamic hamartoma, a benign developmental process, likely irritating the brain and causing their seizures.

[10] = system: patients having a variety of conditions; test: Example 18: topical CBD cream compounded from crystalline powder (Table 7); format: in vivo, human; settings: 1% topical CBD; single patients
Experimental: The CBD was compounded in crystalline powder form rather than in CBD-oil form into the topical cream. The doses were 7.5 mg (0.75% topical CBD cream), 10 mg (1% topical CBD cream), 15 mg (1.5% topical CBD cream) or 20 mg (2% topical CBD cream).

[11] = system: acute paranoid schizophrenia; settings: cited from earlier work
[12] = cannabidiol 40 mg topical at BONATH
[13] = 15 mg or 30 mg cannabinoid drugs (CBD oil) topical, one patient per entry
[14] = after topical CBD, single patients

C=C(C)[C@@H]1CCC(C)=C[C@H]1c1c(O)cc(CCCCC)cc1O [CBD, cannabidiol]
time after topical CBD at which the effect was seen (human patients; 40 mg topical CBD on back of neck, single patients): 10-15 minutes after nuchal and 15 minutes and within 15 minutes. and 10 minutes after topical CBD, and hand function within 15 minutes; and 20 minutes after 40 mg topical and 5 minutes after 40 mg topical and 5 minutes and 10-15 minutes after topical CBD, | anxiety level after nuchal topical CBD (human patients; 40 mg, person in panic attack, before 7-8 of 10): anxiety from 7-8 of 10 to 4 of 10 | time without freezing episodes after one dose (human patients; one dose of 40 mg topical CBD, Parkinson's patient with 10-12 freezing episodes per day): over 24 hours; also more | EEG after nuchal administration [1, 12]: attenuation of the right temporal waves to a more normal state | duration of EEG improvement and clinical benefit [1, 12]: The EEG improvement lasted several minutes, but the clinical benefit lasted several hours | neuralgic head pain less severe [1, 12]: about 50% | frequency of neuralgic head pain after treatment (every ...) ([1]; cannabidiol 40 mg topical, before every 15-20 seconds): 2 to 5 min | time after topical CBD at which the effect was seen ([2]; 15 mg or 30 mg, back of neck, single patients): 15 minutes after application of topical CBD and 10 minutes after topical CBD to back of and state within 10 minutes. and ≤ 15 minutes and 3 minutes after topical CBD application, and 30 minutes after topical CBD to back of | seizure frequency reduced ([2]; after 2 months use, person with Aicardi syndrome, intractable seizures): reduced 60%. Prior doses of Lamicatal and | spasticity decrease/improvement ([2]; after one application/treatment of topical CBD to back of neck, single patients): 80% and Severe baseline spasticity improved 70% and spasticity by 30% from baseline. and 30% reduction in spasticity in all 4 | duration of effect ([2]; person s/p head injury, topical CBD to back of neck): lasted 8 hours. Now on 3×/day. | result after topical CBD, in words (Table 3) [3, 13]: improved mobility and After week of daily use, headache free and calm, less anxious, and breathing easier. and Headache and neck pain resolved and Chronic daily headaches resolved after daily and Neck pain resolved and 2×/day with benefit for past 2 months. Injury and the neck, pain resolve and ROM improved and chronic headache and improved range and Pain resolved after several and All pain symptoms resolved after 3 weeks of | right facial weakness and decreased sensation improved ([3]; Bell's palsy, CBD to back of neck and region of stylomastoid foramen): 30% | pain (headache, neck, TMJ, back, thoracic) reduction [3, 14]: 50% and diminished 50% for the first time. Prescribed and Chronic back pain improved 30% and Thoracic pain reduced 30% within and Headaches and neck pain improved 30% with | ROM of neck improved ([3]; person, 5 minutes after topical CBD to the neck): 80%. Will continue to use daily. | time after topical CBD at which the effect was seen ([3]; single patients): 5 minutes after topical CBD to back of neck, and 5-10 minutes and 5 minutes after topical CBD application to and ≤ 15 minutes and within 15 minutes after topical CBD and ≤ 10 minutes of topical CBD | result after topical CBD, in words (Table 4) [4, 13]: Right hand symptoms improved after topical; also recorded: improved strength; also recorded: relief better than Tramadol; also recorded: improved mobility and back pain relief; also recorded: back of neck and back 3×/day; pain relief | pain reduction/relief [4, 14]: pain diminished 40% with improved and 30-40% and 30% (2×) and 50% and 60% reduction in chronic pain within a few | left lower extremity pain after topical CBD ([4]; person, before 6 of 10, after 10 minutes): 2 /10 | time after topical CBD at which the effect was seen ([4]; single patients): 5 minutes (2×) and 10 minutes and within 10 minutes. and Within 15 minutes of topical CBD application and ≤ 15 minutes and ≤ 10 minutes and within 2 minutes of application. | result after topical CBD, in words (Table 5) ([5]; 15 mg or 30 mg cannabinoid drugs (CBD oil) at back of neck, one patient per entry): resolved festination/small steppage; also recorded: Facial twitching improved after | time after topical CBD at which the effect was seen ([5]; single patients): 15 minutes after one application and 10 minutes and 10 minutes after topical CBD appli- and 5 minutes; now using 3×/ day. | result in words (Table 6) ([6]; 0.75% topical CBD to neck and 1% to back): 1% to back with patient feeling more alert | time after application at which the effect was seen ([6]; 1% topical CBD to neck and back): ≤ 1 min | result in words (Table 6) ([6]; 1% topical CBD, one patient per entry): became more alert and spontaneous; also recorded: spasticity improved with better movement of; also recorded: improved pain within three minutes. Stated; also recorded: worked better than oil-based CBD they had; also recorded: focus, clearer thinking, and reduced anxiety | pain decrease ([6]; 1% topical CBD, single patients): 50% and pain 20% within a few minutes. and additional 30% from prior baseline. | result in words (Table 6) ([6]; 1.5% topical (powdered) CBD cream): 1.5% topical CBD reduced neck tension and relieved neuropathic pain. Had been using and relieved anxiety and improved demeanor. | result in words (Table 6) ([6]; 2% topical CBD cream): relieved back and lower extremity; also recorded: relieved neck pain and tension from | neck pain and tension level after treatment ([6]; 2% topical CBD cream to back of neck, from 8 of 10, in few minutes): 8 of 10 to 2 in few minutes. | seizure status on treatment ([7]; 16 mg nuchal topical CBD twice daily with Vimpat and Onfi, one year follow-up and 20 months): the patient was seizure-free; also recorded: remained seizure-free since June 2014 | follow-up EEG post-treatment ([7]; one year follow-up (FIG. 6)): right fast activity and sharp waves attenuated; also recorded: no longer showing seizure potential | clinical result ([8]; 2% CBD cream nuchal, continued twice daily): more alert and interactive; also recorded: Seizure frequency also was reduced | EEG after CBD application ([8]; within one minute of application of 1 g of 2% CBD cream (FIG. 8)): improvement in the EEG background without previous burst activity; also recorded: right fast activity and sharp waves attenuated | EEG after CBD dose ([9]; 10 minutes after application of 1 g of 1.6% CBD cream (FIG. 12)): attenuated seizure focus | seizure status on treatment ([9]; topical CBD nuchal since October 2015, only medication): seizure-free since initiating topical CBD therapy | pain decrease [10]: 50% | psychotic symptoms ([11]; after 2 weeks): significant decrease in psychotic symptoms | side effects ([11]; compared with amisulpride): significantly fewer side effects
